From patent publication US20250295648A1 (priority 2024, published 2025)

Tested on: L-DOPA-induced dyskinesia in Parkinson's disease patients
Experiment: Unified Dyskinesia Rating Scale (UDysRS) after 150% L-DOPA challenge
Settings: for UDysRS Part 3+4 score, change from baseline: PPS
[1] = 5 patients co-treated with amantadine
[2] = Full analysis set, Visit 2 Baseline
[3] = Full analysis set, Visit 6 Clinic Efficacy Visit
[4] = Full analysis set, Visit 7 Clinic Efficacy Visit
[5] = Full analysis set, average of assessment sessions Part 3 and Part 4, Visit 2 Baseline
[6] = Full analysis set, average of assessment sessions Part 3 and Part 4, Visit 6 Clinic Efficacy Visit
[7] = Full analysis set, average of assessment sessions Part 3 and Part 4, Visit 7 Clinic Efficacy Visit
[8] = Full analysis set, average of assessment sessions, highest item score, Visit 2 Baseline
[9] = Full analysis set, average of assessment sessions, highest item score, Visit 6 Clinic Efficacy Visit
[10] = Full analysis set, average of assessment sessions, highest item score, Visit 7 Clinic Efficacy Visit
[11] = Full analysis set, most severe session, highest item score, Visit 2 Baseline
[12] = Full analysis set, most severe session, highest item score, Visit 6 Clinic Efficacy Visit
[13] = Full analysis set, most severe session, highest item score, Visit 7 Clinic Efficacy Visit
[14] = Visit 2 Baseline, per protocol analysis set, N = 15

Procedure: Patients were rated for dyskinesia at baseline and on days 28 (at end of up-titration period) and 42 (end of stable dosing period). Because the level of dyskinesia experienced by patients can vary over time, they were given 150% (i.e., 1.5×) of their regular L-DOPA dose (up to a maximum of 250 mg) as a challenge 30 min before each dyskinesia assessment to improve comparability between patients and between visits. Patients were filmed 30, 60 and 90 min after dosing with L-DOPA (˜5 min of filming each time). LID was assessed using the Unified Dyskinesia Rating Scale (UDysRS). Changes from baseline are shown for total score (i.e., Parts 1 to 4), for total objective score (i.e., Parts 3+4), and for the sum of Part 3 objective impairment assessment scores. Because objective LID assessment was carried out at 3 time-points (30, 60 and 90 min) following L-DOPA challenge, the above parameters were analyzed based on the most severe of the three scores as well as on the average score of the 3 time points.
The patient took 150% of their normal L-DOPA dose 30 minutes prior to the start of efficacy assessments (UDysRS) at Day 1 (Visit 2), Day 28 (Visit 6) and Day 42 (Visit 7).
The UDysRS is a rating instrument designed to assess the core features of dyskinesia in Parkinson's Disease. The UDysRS consists of 4 parts: • r. Part I, historical disability with regard to the patient's perceptions of the impact on activities of ADL of on-dyskinesia. • s. Part II, historical disability with regard to the patient's perceptions of the impact on ADL of off-dystonia. • t. Part III, objective impairment, which assesses severity of dyskinesia, affected body parts, and type of impairment (choreic vs. dystonic). • u. Part IV, objective disability, based on an evaluation of Part III activities.
Each item in the UDysRS is scored from 0 to 4, with a possible maximum total score of 104.
The UDysRS assessment would be performed at baseline (Day 1, Visit 2), Day 28 and Day 42 (Visits 6 and 7) starting approximately 30 minutes after the L-DOPA challenge on these days.
The data for all 3 assessments performed at each visit would be entered in the eCRF and the Investigator will highlight which of the assessments, corresponding to the assessment where the patient had most severe dyskinesia, that would be used in the descriptive summaries of data.
Change from baseline in the UDysRS total score to Visit 6 (Day 28) and Visit 7 (Day 42) respectively would be summarized using descriptive statistics. […] The same analysis would be done for UDysRS total objective score Part III and IV only.
The baseline value of the dependent variable has been included in the model as a continuous covariate.

`Cc1ccc(CNCC2(F)CCN(C(=O)c3ccc(F)c(Cl)c3)CC2)nc1` [NLX-112, (3-chloro-4-fluoro-phenyl)-[4-fluoro-4-{[(5-methyl-pyridin-2-ylmethyl)-amino]-methyl}piperidin-1-yl]methanone] was tested, and the “UDysRS Part 3 + 4, mean change from baseline” value [1] was −4.4, the “UDysRS Total, mean change from baseline” value [1] was −4.0 and the “UDysRS Part 3+4 score, change from baseline” value (“UDysRS Part 3+4 score, change” below) (Day 28, average of 3 assessments (30, 60, 90 min), p=0.0065) was −2.49 points. The “UDysRS total score (Parts 1-4), change from baseline” value (Day 28, most severe assessment, PPS n=15, p=0.0281 vs baseline) was −4.1 points, the “UDysRS Part 3+4 score, change” value (Day 28, most severe assessment, not statistically significant) was −1.7 points and the “UDysRS sum of Part 3 items, average of all 3 assessments, vs baseline” value (Day 28 and Day 42, within NLX-112 group) was “significant reduction”. The “UDysRS total score or total objective (Parts 3 and 4) score, change from baseline, NLX-112 vs placebo” value (Day 28 or Day 42) was “no significant differences”, the “UDysRS Part 3+4 score, change” value (Day 42, average of 3 assessments (30, 60, 90 min), p=0.0005) was −3.31 points and the “UDysRS total score (Parts 1-4), change from baseline” value (Day 42, most severe assessment, PPS n=15, p=0.0016 vs baseline) was −6.3 points. For the same compound, the “UDysRS Part 3+4 score, change” value (Day 42, most severe assessment, p=0.0038 vs baseline) was −3.1 points, the “UDysRS Parts 1, 2, 3, and 4 most severe, collected value, mean” value [2] was 31.8 and the “UDysRS Parts 1, 2, 3, and 4 most severe, collected value, median” value [2] was 31.0. The “UDysRS Parts 1, 2, 3, and 4 most severe, absolute change from baseline, mean” value [3] was −4.1, the “UDysRS Parts 1, 2, 3, and 4 most severe, absolute change from baseline, median” value [3] was −2.0 and the “UDysRS Parts 1, 2, 3, and 4 most severe, collected value, mean” value [3] was 27.5. For the same compound, the “UDysRS Parts 1, 2, 3, and 4 most severe, collected value, median” value [3] was 28.0, the “UDysRS Parts 1, 2, 3, and 4 most severe, relative change from baseline (%), mean” value [3] was −10.2% and the “UDysRS Parts 1, 2, 3, and 4 most severe, relative change from baseline (%), median” value [3] was −6.45%. The “UDysRS Parts 1, 2, 3, and 4 most severe, absolute change from baseline, mean” value [4] was −6.3, the “UDysRS Parts 1, 2, 3, and 4 most severe, absolute change from baseline, median” value [4] was −8.0 and the “UDysRS Parts 1, 2, 3, and 4 most severe, collected value, mean” value [4] was 25.3. The “UDysRS Parts 1, 2, 3, and 4 most severe, collected value, median” value [4] was 24.0, the “UDysRS Parts 1, 2, 3, and 4 most severe, relative change from baseline (%), mean” value [4] was −19.0% and the “UDysRS Parts 1, 2, 3, and 4 most severe, relative change from baseline (%), median” value [4] was −25.8%. For the same compound, the “UDysRS Parts 1, 2, 3, and 4 average, collected value, mean” value [5] was 30.43, the “UDysRS Parts 1, 2, 3, and 4 average, collected value, median” value [5] was 29.67 and the “UDysRS Parts 1, 2, 3, and 4 average, absolute change from baseline, mean” value [6] was −4.82. The “UDysRS Parts 1, 2, 3, and 4 average, absolute change from baseline, median” value [6] was −3.00, the “UDysRS Parts 1, 2, 3, and 4 average, collected value, mean” value [6] was 25.33 and the “UDysRS Parts 1, 2, 3, and 4 average, collected value, median” value [6] was 25.33. For the same compound, the “UDysRS Parts 1, 2, 3, and 4 average, relative change from baseline (%), mean” value [6] was −9.33%, the “UDysRS Parts 1, 2, 3, and 4 average, relative change from baseline (%), median” value [6] was −10.6% and the “UDysRS Parts 1, 2, 3, and 4 average, absolute change from baseline, mean” value [7] was −6.51. For the same compound, the “UDysRS Parts 1, 2, 3, and 4 average, absolute change from baseline, median” value [7] was −7.67, the “UDysRS Parts 1, 2, 3, and 4 average, collected value, mean” value [7] was 23.64 and the “UDysRS Parts 1, 2, 3, and 4 average, collected value, median” value [7] was 23.00. For the same compound, the “UDysRS Parts 1, 2, 3, and 4 average, relative change from baseline (%), mean” value [7] was −19.5%, the “UDysRS Parts 1, 2, 3, and 4 average, relative change from baseline (%), median” value [7] was −21.9% and the “UDysRS Parts 3 and 4 average, collected value, mean” value [8] was 13.98. For the same compound, the “UDysRS Parts 3 and 4 average, collected value, median” value [8] was 13.17, the “UDysRS Parts 3 and 4 average, absolute change from baseline, mean” value [9] was −2.49 and the “UDysRS Parts 3 and 4 average, absolute change from baseline, median” value [9] was −1.67. The “UDysRS Parts 3 and 4 average, collected value, mean” value [9] was 11.60, the “UDysRS Parts 3 and 4 average, collected value, median” value [9] was 10.33 and the “UDysRS Parts 3 and 4 average, relative change from baseline (%), mean” value [9] was −17.3%. For the same compound, the “UDysRS Parts 3 and 4 average, relative change from baseline (%), median” value [9] was −20.0%, the “UDysRS Parts 3 and 4 average, absolute change from baseline, mean” value [10] was −3.31 and the “UDysRS Parts 3 and 4 average, absolute change from baseline, median” value [10] was −3.33. For the same compound, the “UDysRS Parts 3 and 4 average, collected value, mean” value [10] was 10.78, the “UDysRS Parts 3 and 4 average, collected value, median” value [10] was 9.67 and the “UDysRS Parts 3 and 4 average, relative change from baseline (%), mean” value [10] was −25.3%. For the same compound, the “UDysRS Parts 3 and 4 average, relative change from baseline (%), median” value [10] was −31.5%, the “UDysRS Parts 3 and 4 most severe, collected value, mean” value [11] was 15.3 and the “UDysRS Parts 3 and 4 most severe, collected value, median” value [11] was 13.5. The “UDysRS Parts 3 and 4 most severe, absolute change from baseline, mean” value [12] was −1.7, the “UDysRS Parts 3 and 4 most severe, absolute change from baseline, median” value [12] was −1.0 and the “UDysRS Parts 3 and 4 most severe, collected value, mean” value [12] was 13.8. For the same compound, the “UDysRS Parts 3 and 4 most severe, collected value, median” value [12] was 12.0, the “UDysRS Parts 3 and 4 most severe, relative change from baseline (%), mean” value [12] was −15.8% and the “UDysRS Parts 3 and 4 most severe, relative change from baseline (%), median” value [12] was −8.33%. The “UDysRS Parts 3 and 4 most severe, absolute change from baseline, mean” value [13] was −3.1, the “UDysRS Parts 3 and 4 most severe, absolute change from baseline, median” value [13] was −4.0 and the “UDysRS Parts 3 and 4 most severe, collected value, mean” value [13] was 12.4. For the same compound, the “UDysRS Parts 3 and 4 most severe, collected value, median” value [13] was 11.0, the “UDysRS Parts 3 and 4 most severe, relative change from baseline (%), mean” value [13] was −21.0% and the “UDysRS Parts 3 and 4 most severe, relative change from baseline (%), median” value [13] was −31.6%. The “UDysRS Parts 1, 2, 3, and 4 average, collected value, mean” value [14] was 30.16, the “UDysRS Parts 1, 2, 3, and 4 average, collected value, median” value [14] was 29.33 and the “UDysRS Parts 1, 2, 3, and 4 most severe, collected value, mean” value [14] was 31.6. The “UDysRS Parts 1, 2, 3, and 4 most severe, collected value, median” value [14] was 31.0, the “UDysRS Parts 3 and 4 average, collected value, mean” value [14] was 14.09 and the “UDysRS Parts 3 and 4 average, collected value, median” value [14] was 13.00. The “UDysRS Parts 3 and 4 most severe, collected value, mean” value [14] was 15.5, the “UDysRS Parts 3 and 4 most severe, collected value, median” value [14] was 14.0 and the “UDysRS Parts 1, 2, 3, and 4 average, absolute change from baseline, mean” value (Visit 6 Clinic Efficacy Visit (Day 28), per protocol analysis set, N = 15) was −4.82.
